Experimental data reported in the NIST ThermoML archive (doi:10.1021/acs.jced.6b00959).

Experiment: molar heat capacity at constant pressure
Settings: Liquid, Flow calorimetry

C=C(F)C(F)(F)F [2,3,3,3-tetrafluoro-1-propene]
Settings | molar heat capacity at constant pressure [J/K/mol]
303.53 K, 2030 kPa | 157.15
303.55 K, 2530 kPa | 156.01
303.58 K, 1570 kPa | 160.11
303.6 K, 8010 kPa | 146.09
303.6 K, 8490 kPa | 146.2
303.6 K, 10010 kPa | 145.75
303.61 K, 6980 kPa | 146.66
303.61 K, 7490 kPa | 146.89
303.61 K, 8980 kPa | 145.75
303.61 K, 9470 kPa | 145.75
303.67 K, 10990 kPa | 144.49
303.72 K, 3040 kPa | 154.41
303.72 K, 10520 kPa | 144.95
303.73 K, 5000 kPa | 150.88
303.74 K, 3530 kPa | 154.18
303.75 K, 4020 kPa | 153.16
303.75 K, 5520 kPa | 150.19
303.77 K, 6510 kPa | 148.6
303.79 K, 11450 kPa | 144.03
303.79 K, 12070 kPa | 143.69
303.8 K, 5980 kPa | 148.82
303.81 K, 4520 kPa | 151.45
313.61 K, 6020 kPa | 154.3
313.63 K, 5000 kPa | 157.04
313.64 K, 4490 kPa | 158.18
313.64 K, 7500 kPa | 151.68
313.64 K, 7980 kPa | 151.11
313.65 K, 8490 kPa | 150.65
313.66 K, 1510 kPa | 166.04
313.66 K, 4000 kPa | 159.77
313.66 K, 6990 kPa | 152.82
313.67 K, 2010 kPa | 165.36
313.69 K, 2510 kPa | 165.02
313.69 K, 3000 kPa | 164.11
313.69 K, 6500 kPa | 153.96
313.7 K, 9500 kPa | 149.85
313.7 K, 10010 kPa | 149.51
313.7 K, 11460 kPa | 147.8
313.72 K, 3510 kPa | 162.62
313.72 K, 8970 kPa | 150.31
313.72 K, 10500 kPa | 148.94
313.72 K, 10980 kPa | 148.6
313.72 K, 12040 kPa | 147.46
313.79 K, 5490 kPa | 154.53
323.62 K, 2020 kPa | 170.26
323.63 K, 6940 kPa | 155.67
323.64 K, 7520 kPa | 154.98
323.64 K, 8000 kPa | 154.41
323.64 K, 8510 kPa | 153.73
323.65 K, 2500 kPa | 168.67
323.65 K, 9540 kPa | 152.25
323.66 K, 8960 kPa | 153.39
323.66 K, 9990 kPa | 152.02
323.68 K, 3010 kPa | 167.41
323.68 K, 10980 kPa | 151.11
323.69 K, 3510 kPa | 165.93
323.69 K, 4520 kPa | 162.51
323.69 K, 6490 kPa | 157.61
323.69 K, 10530 kPa | 151.79
323.7 K, 11470 kPa | 150.31
323.71 K, 3990 kPa | 164.79
323.71 K, 5020 kPa | 161.37
323.71 K, 5500 kPa | 159.89
323.71 K, 5990 kPa | 159.09
323.73 K, 12010 kPa | 150.08
333.61 K, 5490 kPa | 165.47
333.63 K, 3000 kPa | 179.5
333.63 K, 5980 kPa | 164.68
333.66 K, 3480 kPa | 177.56
333.66 K, 4500 kPa | 170.72
333.66 K, 7020 kPa | 161.71
333.67 K, 2080 kPa | 185.77
333.68 K, 2520 kPa | 183.95
333.68 K, 5000 kPa | 169.12
333.68 K, 6510 kPa | 162.74
333.69 K, 7500 kPa | 161.03
333.69 K, 9010 kPa | 159.09
333.69 K, 9990 kPa | 156.69
333.71 K, 4040 kPa | 175.4
333.72 K, 8010 kPa | 160.68
333.72 K, 8500 kPa | 159.66
333.72 K, 9490 kPa | 157.61
333.79 K, 10520 kPa | 155.21
333.79 K, 11000 kPa | 154.75
333.82 K, 11480 kPa | 154.07
333.82 K, 12030 kPa | 153.61
343.67 K, 10510 kPa | 157.83
343.68 K, 2530 kPa | 204.93
343.68 K, 3510 kPa | 187.26
343.68 K, 11500 kPa | 156.58
343.69 K, 11060 kPa | 156.92
343.7 K, 4490 kPa | 178.48
343.7 K, 9470 kPa | 159.89
343.7 K, 12010 kPa | 155.89
343.71 K, 7000 kPa | 165.47
343.72 K, 6040 kPa | 169.35
343.73 K, 6510 kPa | 168.55
343.73 K, 7500 kPa | 164.45
343.73 K, 7980 kPa | 163.76
343.74 K, 3990 kPa | 183.49
343.75 K, 5020 kPa | 175.74
343.75 K, 10020 kPa | 159.54
343.77 K, 8520 kPa | 163.19
343.79 K, 3010 kPa | 196.61
343.8 K, 9010 kPa | 162.51
343.81 K, 5560 kPa | 173.23
353.69 K, 10520 kPa | 163.99
353.71 K, 6510 kPa | 177.79
353.71 K, 8500 kPa | 169.24
353.73 K, 4510 kPa | 196.61
353.73 K, 4990 kPa | 190.11
353.73 K, 5500 kPa | 185.77
353.73 K, 11010 kPa | 162.85
353.74 K, 8990 kPa | 168.33
353.75 K, 6990 kPa | 175.97
353.76 K, 11520 kPa | 162.62
353.77 K, 9530 kPa | 166.96
353.78 K, 6040 kPa | 182.58
353.78 K, 12010 kPa | 161.94
353.79 K, 7490 kPa | 173.8
353.79 K, 10010 kPa | 165.93
353.81 K, 7990 kPa | 172.66
363.69 K, 6030 kPa | 189.42
363.73 K, 10520 kPa | 167.98
363.74 K, 5480 kPa | 198.2
363.75 K, 4510 kPa | 225
363.75 K, 7990 kPa | 175.85
363.76 K, 7020 kPa | 181.78
363.76 K, 10010 kPa | 169.12
363.76 K, 11050 kPa | 167.3
363.77 K, 6500 kPa | 186.46
363.78 K, 4990 kPa | 209.38
363.78 K, 7530 kPa | 178.7
363.78 K, 8990 kPa | 172.09
363.78 K, 11500 kPa | 166.96
363.79 K, 8510 kPa | 174.26
363.8 K, 9490 kPa | 171.06
363.83 K, 12080 kPa | 166.96
373.09 K, 4510 kPa | 297.19
373.19 K, 4990 kPa | 241.54
373.24 K, 5480 kPa | 217.82
373.28 K, 5980 kPa | 202.31
373.3 K, 6490 kPa | 191.25
373.3 K, 7000 kPa | 185.09
373.3 K, 7520 kPa | 180.3
373.32 K, 8030 kPa | 177.33
373.32 K, 8510 kPa | 174.94
373.32 K, 8990 kPa | 172.32
373.34 K, 9510 kPa | 171.52
373.36 K, 9990 kPa | 170.95
373.38 K, 10530 kPa | 169.58
373.39 K, 11020 kPa | 168.44
373.4 K, 11510 kPa | 167.87
373.42 K, 11980 kPa | 167.41
